Assay results reported in the METLIN SMRT retention time set (Domingo-Almenara et al. 2019).

Assay: gradient 5% acetonitrile 3 min, to 50% in 2 min, to 85% in 15 min, held 3 min, 100 µL/min
Settings: column: Zorbax Extend-C18 2.1 x 50 mm; eluents: water / acetonitrile, 0.1% formic acid
Procedure, shortened: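 The mobile phases were water and acetonitrile, each with 0.1% formic acid, pumped at 100 μL/min through a Zorbax Extend-C18 column (2.1 × 50 mm, 1.8 μm). Pure standards were injected as mixtures of ~100 molecules and detected by a quadrupole time-of-flight mass spectrometer in positive and negative ionization mode. Retention time came from computationally picked adduct peaks, each inspected by hand.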

RP-LC retention time [s]	SMILES
593	O=S(=O)(c1ccc(Cl)s1)N1CCN(c2ccc(-n3ccnc3)nn2)CC1
1130	Cc1ccc(N2CN(Cc3ccccc3)S(=O)(=O)c3cccnc32)cc1
686	COc1ccc(NC(=O)N2CCN(Cc3nc4cc(Cl)ccc4o3)CC2)cc1OC
644	Cn1cccc1CN1CCCC(COc2ccccc2C(=O)N2CCCC2)C1 (centres undefined)
725	CN1c2cc(F)ccc2C(=O)NC12CCN(C(=O)Nc1ccc3c(c1)OCCO3)CC2
631	Cc1ccccc1-c1ccc(N2CCN(C(=O)NC3CCCCC3)CC2)nn1
638	CSc1ccc(CNC(=O)C2CCN(c3ccc(N4CCOCC4)nn3)CC2)cc1
819	COc1ccccc1NC(=O)Cn1nc2cc(C)nc(-c3ccccc3)n2c1=O
1060	O=C1CCCc2c1cc(C(=O)Nc1ccc(Cl)cc1)c(=O)n2-c1ccc(F)cc1
710	Cc1noc(C2CN(C(=O)c3ccc(F)c(F)c3)CC23CCOCC3)n1 (centres undefined)
1150	CCOc1ccc(C2Cn3nnc(-c4nc(-c5ccsc5)no4)c3CO2)cc1 (centres undefined)
685	CSc1cccc(NC(=O)CN2CCC3(CC2)N=C(c2cccc(F)c2)C(=O)N3)c1
882	O=C(C1CC(=O)N(c2n[nH]c3cccc(F)c23)C1)N1CCC(Cc2ccccc2)CC1 (centres undefined)
839	Cc1cc(C)n(CC(=O)N2CCC(c3nc(-c4ccncc4)no3)C2)n1 (centres undefined)
610	Oc1ccccc1CN1CCN(c2cc(-c3ccccc3)[nH]n2)CC1
647	N[C@@H](Cc1cc(CP(=O)(O)O)cc(-c2ccccc2Cl)c1)C(=O)O
981	O=C(NCc1ccccc1)c1cccn1Cc1noc(-c2ccccc2)n1
645	COc1ccc(S(=O)(=O)Nc2cccc(-c3cn4ccccc4n3)c2)cc1
773	Cc1cc(C2CCCN2C(=O)c2c(F)cccc2Cl)no1 (centres undefined)
603	O=C(CCc1nnc2c3cc(-c4ccc(F)cc4)nn3ccn12)NCCc1ccccn1
840	CCCCOc1ccc(C(=O)Nc2cccc(C)n2)cc1
601	CCCN1CCN(c2cc(C(=O)O)c3cc(NC(=O)c4ccccc4F)ccc3n2)CC1

RP-LC retention time [s]	SMILES
1150	O=C(CN1CCN(C(=O)c2cc3cn(C4CCCC4)cc3s2)CC1)N1CCCC1
689	COCC(=O)N1CCc2c(c(-c3nnc(-c4ccccc4Cl)o3)nn2C)C1
1030	Cc1ccc(-n2nc(CO)c(C(=O)NC3CCCC3)n2)cc1
1020	CCOc1ccc(NC(=O)Cn2cccc(-c3nc(-c4ccc(Br)cc4)no3)c2=O)cc1
864	C=CCN(C(=O)C1CCCN(c2ncnc3c2nc2n3CCCCC2)C1)c1ccccc1 (centres undefined)
643	COC[C@@H]1[C@H](C(=O)NCCC(C)C)CCC(=O)N1C
657	CO[C@H]1C(=O)N(C(C)C)[C@H]1C1CCN(C(=O)C2CC2)CC1
702	CCN1C(=O)c2cccnc2Sc2cc(CNC(=O)c3ccoc3)ccc21
836	O=C(N[C@H]1C[C@@H]2C[C@H]1CN2C(=O)Cc1ccc(OC(F)(F)F)cc1)c1ccccc1
860	CN1c2cc(C(=O)NCc3ccc(F)c(Cl)c3)ccc2C(=O)N2CCCCC21 (centres undefined)
1260	CCc1ccc(NC(=O)c2cc(C(C)C)n3nccc3n2)cc1
896	COc1ccc(OC)c2sc(N3CCN(S(=O)(=O)c4cccs4)CC3)nc12
638	O=C(Cn1nc2n(c1=O)CCCC2)Nc1cccc(F)c1
1060	Cc1cc(-c2c(C)sc(C)c2S(=O)(=O)NCc2ccccc2Cl)n[nH]1
738	Cc1c(Cl)cccc1NC(=O)N1CCCC1c1nncn1-c1ccccc1 (centres undefined)
951	CCOc1cccc(-c2noc(Cn3ccn(-c4c(C)cccc4C)c(=O)c3=O)n2)c1
666	COc1ccccc1CNS(=O)(=O)c1cc(-c2[nH]ncc2C(=O)N(C)C)oc1C
656	COCC1(O)CCOC2(CCN(C(=O)C3CCCCC3)CC2)C1 (centres undefined)
1150	Cc1cccc(-n2c(=O)c3sccc3n(Cc3nc(-c4ccc(C)c(C)c4)no3)c2=O)c1
798	CCCOc1ccc(CNC(=O)c2nc(N3CCSCC3)c3cn(C)nc3n2)cc1
841	Cc1cc(-c2ccc3c(c2)CCN3C(=O)c2cccc(NC(=O)c3ccco3)c2)on1
994	COc1cc(-c2nnc(COc3ccc(Cl)cc3Cl)o2)cc(OC)c1OC

RP-LC retention time [s]	SMILES
918	COc1cc(NC(=O)Cn2nc(N3CCCC3)c3ccccc3c2=O)cc(OC)c1
626	CCCCn1c(CN2CCCC2)nc2cc(NC(=O)c3ccco3)ccc21
816	CC(C)NC(=O)c1cc(N(C)C)nc2c(Cl)cccc12
561	COc1cc(CN2CCC3(CC2)CC(C)(O)CCO3)cc(OC)c1 (centres undefined)
702	Cc1cc(C)cc(NC(=O)C2(C)Oc3cccnc3NC2=O)c1 (centres undefined)
1100	CC1=NS(=O)(=O)N(Cc2ccccc2)C=C1C(=O)OCc1ccc(F)c(F)c1
960	Cc1nc(-c2ccc3c(c2)CCN3C(=O)COc2ccc(F)cc2)cs1
712	COc1ccc(CNS(=O)(=O)c2cc3n(c2)CCN(C(C)C)C3=O)cc1
762	CCc1nc2nccc(-c3cccc(OC)c3)n2n1
674	Cc1ccnc(NC(=O)C2CCN(S(=O)(=O)c3cc(C(=O)N4CCCC4)n(C)c3)CC2)c1
973	CSc1cccc(NC(=O)c2cn(C)nc2S(=O)(=O)N2CCSCC2)c1
591	CCN(CC)CCNCc1ccc(-c2ccc(Cl)cc2)o1
900	Cc1ccc(C)c(N2CCN(C(=O)c3cn(-c4ccc(NC(=O)C5CC5)cn4)cn3)CC2)c1
930	COc1ccc(S(=O)(=O)CCc2noc(C(=O)NCCc3ccc(SC)cc3)n2)cc1
990	COc1ccc(N2CC(c3noc(-c4ccc(Cl)cc4)n3)CC2=O)cc1 (centres undefined)
1050	COc1ccc(-c2noc(Cc3nnc(-c4ccc(C)c(F)c4)o3)n2)cc1
563	CCN1CCN(c2c(C(=O)c3ccccc3)cnc3cc4c(cc23)OCO4)CC1
801	CCc1ccc(NS(=O)(=O)c2cc3n(c2)CCCN(CC)C3=O)cc1
884	O=C(Cn1ccc2ccccc21)N1CCN(c2ccc(F)cc2)CC1
738	O=C(NCCSCc1ccco1)c1cc(-c2cccnc2)nc2ccccc12
831	COC(=O)c1ccccc1NC(=O)N(Cc1cc(=O)[nH]c2ccccc12)C(C)C
823	O=C(NC1CCCCCC1)c1ccc(CN2CCN(C3CCCC3)C(=O)C2=O)cc1

RP-LC retention time [s]	SMILES
918	CCOc1ccc(-c2cn3ccn(-c4ccc(F)c(Cl)c4)c(=O)c3n2)cc1
678	COc1ccc(CNC(=O)NCc2nnnn2-c2ccc(F)c(F)c2)cc1OC
578	COc1nn(C)cc1C(=O)Nc1nnc(-c2csc(C)n2)o1
621	Cc1cccc(OCC(=O)N2CCN(c3cc(C)n4cnnc4n3)CC2)c1
963	O=C(c1csc(N2CCN(c3ccc(F)cc3)CC2)n1)N1CCCC1
626	Cc1nnc(NC(=O)CN2CCN(c3ccccc3F)C2=O)s1
925	Cc1ccccc1CNC(=O)C1(C)CCN(S(=O)(=O)c2ccc(F)cc2)CC1
634	COCCNC(=O)CCCN1C(=O)c2ccccc2Sc2ncccc21
882	O=C(c1cc(Cl)ccc1Cl)N1CCN(c2cc(-c3ccccc3)[nH]n2)CC1
702	CCCNc1cc(N2CCC(CCC(=O)N(C)Cc3ccccc3)CC2)ncn1
684	COc1ccc(-n2nnc(C(=O)N3CCOCC3)c2C)cc1Cl
804	O=C(NCC(F)(F)F)C(=O)NCC1(c2cccs2)CCCCC1
886	O=C(NC1CC1)[C@@H]1C[C@H](Oc2ccccc2)CN1C(=O)CCC1CCCC1
636	Cc1nnsc1C(=O)N1CCc2nc(NC(=O)c3ccco3)sc2C1
855	Cc1ccc(NC(=O)C2CCCN(c3ncnc4c3nc3n4CCCCC3)C2)c(Cl)c1 (centres undefined)
606	N#Cc1ccc(CN2CCC3(CC2)CN(C2CCC2)CC3CO)cc1 (centres undefined)
678	COc1cccc(S(=O)(=O)N2CCC(OCCOCc3ccccc3)CC2)c1
922	COc1ccc(NC(=O)C2CCN(S(=O)(=O)c3ccc4c(c3)sc(=O)n4C(C)C)CC2)cc1
861	Cn1nc(-c2nc(C3CC3)no2)c2c1CCN(S(=O)(=O)c1cccs1)C2
943	Cc1[nH]c(C(=O)Nc2cccc(Cl)c2)c(C)c1S(=O)(=O)N1CCCC1

SMILES	RP-LC retention time [s]
CCn1cc(C(=O)Nc2ccccc2)c2cccnc21	798
C/C(=C\c1csc(C)n1)C1C[C@@H]2O[C@@H]2CCC[C@H](C)[C@H](O)[C@@H](C)C(=O)C(C)(C)[C@@H](O)CC(=O)O1 (some centres undefined)	874
O=C1NC2C(=CC(O)C(O)C2O)c2cc3c(cc21)OCO3 (centres undefined)	568
